Results as given in publication PMC7380166, “How to Study the Metabolism of New Psychoactive Substances for the Purpose of Toxicological Screenings—A Follow-Up Study Comparing Pooled Human Liver S9, HepaRG Cells, and Zebrafish Larvae” (Frontiers in Chemistry, 2020).
Where two headings read alike, the source gives them in different places.

Legend:
HepaRG cells = assay: Incubations with HepaRG cells, metabolite identification by LC-HRMS/MS; type: in vitro ADME, human; settings: 24 h, cell culture medium, one replicate of n = 3, n.d. = not detected; for Absolute peak area, HepaRG [25 μM]: 25 μM parent NPS; for Absolute peak area, HepaRG [250 μM]: 250 μM parent NPS
zebrafish larvae = assay: Zebrafish larvae exposure, metabolite identification by LC-HRMS/MS; settings: larvae 4 dpf, 24 h, larvae extract, one replicate of n = 3, n.d. = not detected; for Absolute peak area, Zebrafish larvae [100 µM]: 100 µM parent NPS in medium; for Absolute peak area, Zebrafish larvae [25 μM]: 25 μM 4F-MDMB-BINACA in medium
[1] = n = 2, according to literature, cited from earlier work
[2] = 3,4-DMA-NBOMe and metabolites, ref Caspar et al., 2018
[3] = ephylone and metabolites, ref Wagmann et al., 2019a
[4] = 1P-LSD and metabolites, ref Wagmann et al., 2019b
[5] = 4F-PHP and metabolites, ref Wagmann et al., 2019a

CC(O)CCC(C(O)c1ccc(F)cc1)N1CCCC1 (stereo not shown) [MP9]
Absolute peak area, HepaRG [25 μM] (HepaRG cells): 8.15E+05
Absolute peak area, HepaRG [250 μM] (HepaRG cells): 6.48E+06
Absolute peak area, Zebrafish larvae [100 µM] (zebrafish larvae): 3.78E+07

COc1ccc(CC(C)NCc2ccccc2O[C@@H]2O[C@H](C(=O)O)[C@@H](O)[C@H](O)[C@H]2O)cc1OC (stereo partly shown) [MN22]
Detection in pHLS9 [25 µM] [1, 2]: +

CCCCC(C(=O)c1ccc(F)cc1)[N+]1([O-])CCCC1 (stereo not shown) [MP8]
Absolute peak area, HepaRG [250 μM] (HepaRG cells): 1.47E+05
Absolute peak area, Zebrafish larvae [100 µM] (zebrafish larvae): 2.50E+06

CCCC(C(=O)c1ccc2c(c1)OCO2)N(O)CC (stereo not shown) [ME7]
Absolute peak area, HepaRG [250 μM] (HepaRG cells): 1.75E+06
Absolute peak area, Zebrafish larvae [100 µM] (zebrafish larvae): 1.10E+06
Detection in pHLS9 [25 µM] [1, 3]: +

CCC(=O)n1cc2c3c(cccc31)C1=C[C@@H](C(=O)N(CC)CC)CN[C@@H]1C2 [ML20]
Absolute peak area, HepaRG [25 μM] (HepaRG cells): 3.19E+04
Absolute peak area, HepaRG [250 μM] (HepaRG cells): 3.74E+06
Absolute peak area, Zebrafish larvae [100 µM] (zebrafish larvae): 3.77E+07
Detection in pHLS9 [25 µM] [1, 4]: +

CCC(=O)n1cc2c3c(cccc31)C1=C[C@@H](C(=O)N(CC)CC)CN(C)[C@@H]1C2O (stereo partly shown) [ML24]
Absolute peak area, Zebrafish larvae [100 µM] (zebrafish larvae): 3.37E+07

COc1ccc(CC(C)N)cc1OC (stereo not shown) [MN1]
Absolute peak area, HepaRG [25 μM] (HepaRG cells): 4.04E+07
Absolute peak area, HepaRG [250 μM] (HepaRG cells): 9.84E+07
Absolute peak area, Zebrafish larvae [100 µM] (zebrafish larvae): 3.29E+07
Detection in pHLS9 [25 µM] [1, 2]: +

CC(CCC(C(=O)c1ccc(F)cc1)N1CCCC1)OC1OC(C(=O)O)C(O)C(O)C1O (stereo not shown) [MP11]
Absolute peak area, Zebrafish larvae [100 µM] (zebrafish larvae): 1.15E+06
Detection in pHLS9 [25 µM] [1, 5]: +

CCNC(=O)[C@@H]1C=C2c3cccc4c3c(cn4C(=O)CC)C[C@H]2N(C)C1 [ML17]
Absolute peak area, Zebrafish larvae [100 µM] (zebrafish larvae): 1.48E+08
Detection in pHLS9 [25 µM] [1, 4]: +

CCCCC(C(=O)c1ccc(F)cc1)N1CCC(=O)C1 (stereo not shown) [MP3]
Absolute peak area, Zebrafish larvae [100 µM] (zebrafish larvae): 7.58E+04

CCCCC(C(O)c1ccc(F)cc1)N1CCCC1 (stereo not shown) [MP2]
Absolute peak area, HepaRG [25 μM] (HepaRG cells): 1.18E+07
Absolute peak area, HepaRG [250 μM] (HepaRG cells): 6.41E+07
Absolute peak area, Zebrafish larvae [100 µM] (zebrafish larvae): 2.98E+07
Detection in pHLS9 [25 µM] [1, 5]: +

CC(C)(C)[C@H](NC(=O)c1nn(CCCCF)c2ccccc12)C(=O)O[C@@H]1O[C@H](C(=O)O)[C@@H](O)[C@H](O)[C@H]1O [MB22]
Absolute peak area, HepaRG [25 μM] (HepaRG cells): 2.56E+07
Absolute peak area, HepaRG [250 μM] (HepaRG cells): 3.25E+07

COc1ccc(CC(C)N(O)Cc2ccccc2O)cc1OC (stereo not shown) [MN9]
Absolute peak area, Zebrafish larvae [100 µM] (zebrafish larvae): 3.57E+05

CCCC(NCC)C(O)c1ccc2c(c1)OCO2 (stereo not shown) [ME5]
Absolute peak area, Zebrafish larvae [100 µM] (zebrafish larvae): 7.64E+06
Detection in pHLS9 [25 µM] [1, 3]: +

COc1ccccc1CNC(C)Cc1ccc(O)c(O)c1 (stereo not shown) [MN2]
Detection in pHLS9 [25 µM] [1, 2]: +

CC1(CO)COC(=O)[C@H]1NC(=O)c1nn(CCCCF)c2ccccc12 (stereo partly shown) [MB12]
Absolute peak area, Zebrafish larvae [25 μM] (zebrafish larvae): 1.68E+06

CN1C[C@H](C(N)=O)C=C2c3cccc4[nH]cc(c34)C[C@H]21 [ML1]
Absolute peak area, HepaRG [250 μM] (HepaRG cells): 1.93E+06

CC(O)CCC(C(=O)c1ccc(F)cc1)N1CCCC1 (stereo not shown) [MP5]
Absolute peak area, HepaRG [25 μM] (HepaRG cells): 1.14E+06
Absolute peak area, HepaRG [250 μM] (HepaRG cells): 1.07E+07
Absolute peak area, Zebrafish larvae [100 µM] (zebrafish larvae): 7.71E+06
Detection in pHLS9 [25 µM] [1, 5]: +

CCCCC(C(O[C@@H]1O[C@H](C(=O)O)[C@@H](O)[C@H](O)[C@H]1O)c1ccc(F)cc1)N1CCCC1 (stereo partly shown) [MP10]
Absolute peak area, HepaRG [250 μM] (HepaRG cells): 2.91E+04
Detection in pHLS9 [25 µM] [1, 5]: +

CCN(CCO)C(=O)C1C=C2c3cccc4[nH]cc(c34)CC2N(C)C1 (stereo not shown) [ML14]
Absolute peak area, HepaRG [25 μM] (HepaRG cells): 4.01E+05
Absolute peak area, HepaRG [250 μM] (HepaRG cells): 4.63E+06
Absolute peak area, Zebrafish larvae [100 µM] (zebrafish larvae): 3.90E+06

CCN(CCOC1OC(C(=O)O)C(O)C(O)C1O)C(=O)C1C=C2c3cccc4[nH]cc(c34)CC2N(C)C1 (stereo not shown) [ML28]
Absolute peak area, HepaRG [250 μM] (HepaRG cells): 1.07E+05

CC1(C)COC(=O)[C@H]1NC(=O)c1n[nH]c2ccccc12 [MB2]
Absolute peak area, Zebrafish larvae [25 μM] (zebrafish larvae): 5.13E+05

CC(C)(C)[C@H](NC(=O)c1nn(CCCC(=O)O)c2ccccc12)C(=O)O [MB10]
Absolute peak area, HepaRG [25 μM] (HepaRG cells): 1.68E+05
Absolute peak area, HepaRG [250 μM] (HepaRG cells): 8.32E+05
Absolute peak area, Zebrafish larvae [25 μM] (zebrafish larvae): 5.72E+04

CCNC(=O)[C@@H]1C=C2c3cccc4[nH]cc(c34)C[C@H]2NC1 [ML3]
Absolute peak area, HepaRG [25 μM] (HepaRG cells): 3.89E+05
Absolute peak area, HepaRG [250 μM] (HepaRG cells): 2.20E+06
Absolute peak area, Zebrafish larvae [100 µM] (zebrafish larvae): 3.30E+05

CCCCC(C(=O)c1ccc(F)cc1)N1CCCC1=O (stereo not shown) [MP4]
Absolute peak area, Zebrafish larvae [100 µM] (zebrafish larvae): 8.64E+05
Detection in pHLS9 [25 µM] [1, 5]: +

COC(=O)C(NC(=O)c1nn(CCCCF)c2ccccc12)C(C)(C)COC1OC(C(=O)O)C(O)C(O)C1O (stereo not shown) [MB25]
Absolute peak area, Zebrafish larvae [25 μM] (zebrafish larvae): 1.75E+07

COc1ccccc1CN(O)C(C)Cc1ccc(OC)c(OC)c1 (stereo not shown) [MN12]
Absolute peak area, HepaRG [250 μM] (HepaRG cells): 4.60E+05
Absolute peak area, Zebrafish larvae [100 µM] (zebrafish larvae): 8.81E+06

CCCCC(N)C(=O)c1ccc(F)cc1 (stereo not shown) [MP1]
Absolute peak area, HepaRG [25 μM] (HepaRG cells): 1.48E+05
Absolute peak area, HepaRG [250 μM] (HepaRG cells): 1.82E+06
Absolute peak area, Zebrafish larvae [100 µM] (zebrafish larvae): 4.83E+05
Detection in pHLS9 [25 µM] [1, 5]: +

COc1ccc(CC(C)NCc2ccccc2O)cc1OC (stereo not shown) [MN7]
Absolute peak area, HepaRG [25 μM] (HepaRG cells): 1.19E+07
Absolute peak area, HepaRG [250 μM] (HepaRG cells): 1.17E+08
Absolute peak area, Zebrafish larvae [100 µM] (zebrafish larvae): 1.19E+08
Detection in pHLS9 [25 µM] [1, 2]: +

CCC(=O)n1cc2c3c(cccc31)C1=C[C@@H](C(=O)N(CC)CCO)CN(C)[C@@H]1C2 [ML23]
Absolute peak area, Zebrafish larvae [100 µM] (zebrafish larvae): 3.31E+07

COC(=O)C(NC(=O)c1nn(CCCC(=O)OC2OC(C(=O)O)C(O)C(O)C2O)c2ccccc12)C(C)(C)C (stereo not shown) [MB24]
Absolute peak area, Zebrafish larvae [25 μM] (zebrafish larvae): 2.34E+05

CN1C[C@H](C(=O)O)C=C2c3cccc4[nH]cc(c34)C[C@H]21 [ML2]
Absolute peak area, HepaRG [25 μM] (HepaRG cells): 5.16E+06
Absolute peak area, HepaRG [250 μM] (HepaRG cells): 1.39E+07
Absolute peak area, Zebrafish larvae [100 µM] (zebrafish larvae): 3.63E+05

CCN(CC)C(=O)[C@@H]1C=C2c3cccc4[nH]cc(c34)C[C@H]2NC1 [ML5]
Absolute peak area, HepaRG [25 μM] (HepaRG cells): 1.75E+07
Absolute peak area, HepaRG [250 μM] (HepaRG cells): 3.37E+07
Absolute peak area, Zebrafish larvae [100 µM] (zebrafish larvae): 1.07E+07
Detection in pHLS9 [25 µM] [1, 4]: +

CCN(CC)C(=O)C1C=C2c3cccc4[nH]cc(c34)C(O)C2NC1 (stereo not shown) [ML10]
Absolute peak area, Zebrafish larvae [100 µM] (zebrafish larvae): 6.10E+04

CCN(CC)C(=O)[C@@H]1C=C2c3cccc4c3C(O)(C[C@H]2N(C)C1)C(=O)N4 (stereo partly shown) [ML18, 2−oxo−3−hydroxy LSD]
Absolute peak area, HepaRG [25 μM] (HepaRG cells): 7.00E+06
Absolute peak area, HepaRG [250 μM] (HepaRG cells): 3.67E+06
Absolute peak area, Zebrafish larvae [100 µM] (zebrafish larvae): 6.93E+06
Detection in pHLS9 [25 µM] [1, 4]: +

CCNC(=O)[C@@H]1C=C2c3cccc4[nH]cc(c34)C[C@H]2N(C)C1 [ML4]
Absolute peak area, HepaRG [25 μM] (HepaRG cells): 3.19E+07
Absolute peak area, HepaRG [250 μM] (HepaRG cells): 2.58E+08
Absolute peak area, Zebrafish larvae [100 µM] (zebrafish larvae): 6.17E+07
Detection in pHLS9 [25 µM] [1, 4]: +

CCNC(=O)[C@@H]1C=C2c3cccc4c3c(cn4C(=O)CC)C[C@H]2NC1 [ML12]
Absolute peak area, Zebrafish larvae [100 µM] (zebrafish larvae): 4.11E+05

CCC(=O)n1cc2c3c(cccc31)C1=C[C@@H](C(=O)O)CN(C)[C@@H]1C2 [ML8]
Absolute peak area, Zebrafish larvae [100 µM] (zebrafish larvae): 1.07E+06
